In general, IC50 refers to the point on the concentration scale where inhibition reaches its midpoint. Read a low IC50 as higher potency.

For this test, the target named is T1, human β-Secretase (Homo sapiens, UniProt P56817).
T1 construct: soluble part of the human β-Secretase (AA 1-AA 460); Fc domain of IgG1 (C); made in house
T1 sequence (P56817 22-460): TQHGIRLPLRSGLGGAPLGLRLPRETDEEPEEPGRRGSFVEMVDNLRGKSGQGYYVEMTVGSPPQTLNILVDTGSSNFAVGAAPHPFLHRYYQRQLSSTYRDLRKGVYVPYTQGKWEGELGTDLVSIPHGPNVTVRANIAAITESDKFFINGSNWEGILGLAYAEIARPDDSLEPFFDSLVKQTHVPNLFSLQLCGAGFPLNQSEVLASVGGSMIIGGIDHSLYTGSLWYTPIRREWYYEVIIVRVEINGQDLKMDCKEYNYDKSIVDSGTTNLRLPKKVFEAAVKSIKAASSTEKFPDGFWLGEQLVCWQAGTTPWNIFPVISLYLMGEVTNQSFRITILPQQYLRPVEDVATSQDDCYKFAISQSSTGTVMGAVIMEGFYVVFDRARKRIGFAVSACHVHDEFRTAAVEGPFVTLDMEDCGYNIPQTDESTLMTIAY
Description: TR-FRET assay (β-secretase enzyme, sBACE-Fc). Format: biochemical. The note with it: soluble human β-secretase (AA 1-460) Fc fusion, substrate (Europium)CEVNLDAEFK(Qsy7) 100 nM, pH 4.5; unit inferred, nM taken. As to the method:
The β-secretase enzyme used in the TR-FRET is prepared as follows:
The cDNA for the soluble part of the human β-Secretase (AA 1-AA 460) was cloned using the ASP2-Fc10-1-IRES-GFP-neoK mammalian expression vector. The gene was fused to the Fc domain of IgG1 (affinity tag) and stably cloned into HEK 293 cells.
The enzyme (truncated form) was diluted to 6 μg/mL (stock 1.3 mg/mL) and the substrate (Europium)CEVNLDAEFK(Qsy7) to 200 nM (stock 120 μM) in reaction buffer (NaAcetate, chaps, triton x-100, EDTA pH4.5). The robotic systems Biomek FX and Velocity 11 were used for all liquid handling and the enzyme and substrate solutions were kept on ice until they were placed in the robotic system. Enzyme (9 μl) was added to the plate then 1 μl of compound in dimethylsulphoxide was added, mixed and pre-incubated for 10 minutes. Substrate (10 μl) was then added, mixed and the reaction proceeded for 15 minutes at room temperature. The reaction was stopped with the addition of Stop solution (7 μl, NaAcetate, pH 9). The fluorescence of the product was measured on a Victor II plate reader with an excitation wavelength of 340 nm and an emission wavelength of 615 nm. The assay was performed in a Costar 384 well round bottom, low volume, non-binding surface plate (Corning #3676). The final concentration of the enzyme was 2.7 μg/ml; the final concentration of substrate was 100 nM (Km of ˜250 nM). The dimethylsulphoxide control, instead of test compound, defined the 100% activity level and 0% activity was defined by wells lacking enzyme (replaced with reaction buffer).
`NC1=NC(c2cccc(-c3cncnc3)c2)(c2ccnc(OCC(F)(F)F)c2)c2cccnc21` (stereo not drawn) [Example 16, 5-(3-(Pyrimidin-5-yl)phenyl)-5-(2-(2,2,2-trifluoroethoxy)pyridin-4-yl)-5H-pyrrolo[3,4-b]pyridin-7-amine 0.2 acetic acid]: the midpoint of inhibition, the IC50, lay at 1600 nM.
Under `COc1ccc(C2(c3cccc(-c4cnccn4)c3)N=C(N)c3ncccc32)cc1Cl` (stereo not drawn) [Example 8, 5-(3-Chloro-4-methoxyphenyl)-5-(3-(pyrazin-2-yl)phenyl)-5H-pyrrolo[3,4-b]pyridin-7-amine] stands 610 nM; under `NC1=NC(c2cccc(-c3cccnc3)c2)(c2ccnc(C(F)(F)F)c2)c2cccnc21` (stereo not drawn) [Example 3, 5-(3-(Pyridin-3-yl)phenyl)-5-(2-(trifluoromethyl)pyridin-4-yl)-5H-pyrrolo[3,4-b]pyridin-7-amine], 560 nM; under `COc1ccnc(-c2cccc(C3(c4ccnc(C(F)(F)F)c4)N=C(N)c4ncccc43)c2)c1` (stereo not drawn) [Example 19, 5-(3-(4-methoxypyridin-2-yl)phenyl)-5-(2-(trifluoromethyl)pyridin-4-yl)-5H-pyrrolo[3,4-b]pyridin-7-amine], 359 nM.
Regarding `Cc1cc(C2(c3ccnc(-c4cncnc4)c3)N=C(N)c3ncccc32)cc(C)c1OC(F)F` (stereo not drawn) [Example 29, 5-(4-Difluoromethoxy-3,5-dimethyl-phenyl)-5-(2-pyrimidin-5-yl-pyridin-4-yl)-5H-pyrrolo[3,4-b]pyridin-7-ylamine], the midpoint of inhibition, the IC50, lay at 106 nM.
In turn, `COc1ccc(C2(c3cccc(-c4cncnc4)c3)N=C(N)c3ncccc32)cc1Cl` (stereo not drawn) [Example 7, 5-(3-Chloro-4-methoxyphenyl)-5-(3-(pyrimidin-5-yl)phenyl)-5H-pyrrolo[3,4-b]pyridin-7-amine] had an IC50 of 248 nM.
Under `COc1ccc(C2(c3cccc(-c4cnccn4)c3)N=C(N)c3ncccc32)cc1C(F)F` (stereo not drawn) [Example 23, 5-(3-(difluoromethyl)-4-methoxyphenyl)-5-(3-(pyrazin-2-yl)phenyl)-5H-pyrrolo[3,4-b]pyridin-7-amine] stands 288 nM.
Under `NC1=NC(c2cccc(-c3cccc(Cl)c3)c2)(c2ccnc(C(F)(F)F)c2)c2cccnc21` (stereo not drawn) [Example 1, 5-(3′-Chlorobiphenyl-3-yl)-5-(2-(trifluoromethyl)pyridin-4-yl)-5H-pyrrolo[3,4-b]pyridin-7-amine] stands 400 nM.
Compound `NC1=NC(c2cccc(-c3cncnc3)c2)(c2ccc(OC(F)F)c(CCF)c2)c2cccnc21` (stereo not drawn) [Example 34, 5-[4-Difluoromethoxy-3-(2-fluoro-ethyl)-phenyl]-5-(3-pyrimidin-5-yl-phenyl)-5H-pyrrolo[3,4-b]pyridin-7-ylamine] returned a 50% inhibitory concentration (IC50) of 30 nM.

Values taken from patent US20100125081A1, “NEW COMPOUNDS 574” (ASTRAZENECA AB, priority 2008, published 2010).
